Test results: ChEMBL document CHEMBL1909046, “DrugMatrix in vitro pharmacology data”

Columns and labels:
[1] = DRUGMATRIX: beta-Lactamase enzyme inhibition (substrate: Nitrocefin); design: species or system Bacillus cereus; details: Not Active = under 50% inhibition at 10 µM
Calcitonin receptor = molecular target: T1, Calcitonin receptor (Homo sapiens, UniProt P30988); type: cell membranes, Membrane; details: t47d; note: in other assays of this panel Not Active means under 50% inhibition at 10 µM
T1 sequence (P30988 whole entry): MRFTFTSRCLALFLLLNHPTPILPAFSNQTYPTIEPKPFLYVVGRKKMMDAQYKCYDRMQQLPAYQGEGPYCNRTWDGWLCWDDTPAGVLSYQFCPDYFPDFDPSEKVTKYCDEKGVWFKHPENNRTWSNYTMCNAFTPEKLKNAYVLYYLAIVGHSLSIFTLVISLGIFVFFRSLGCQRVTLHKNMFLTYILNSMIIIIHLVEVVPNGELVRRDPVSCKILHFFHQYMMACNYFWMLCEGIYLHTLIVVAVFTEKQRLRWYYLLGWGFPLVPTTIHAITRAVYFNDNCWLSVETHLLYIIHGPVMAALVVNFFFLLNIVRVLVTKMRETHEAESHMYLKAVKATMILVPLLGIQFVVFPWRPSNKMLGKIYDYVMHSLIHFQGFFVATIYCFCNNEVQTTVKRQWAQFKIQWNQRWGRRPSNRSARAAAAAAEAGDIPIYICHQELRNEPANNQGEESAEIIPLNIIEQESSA

Cannabinoid receptor 1 = Cannabinoid receptor 1 (Homo sapiens, UniProt P21554); type: cell membranes, Membrane; details: chem-1; note: in other assays of this panel Not Active means under 50% inhibition at 10 µM
Cannabinoid receptor 1, sequence (P21554 whole entry): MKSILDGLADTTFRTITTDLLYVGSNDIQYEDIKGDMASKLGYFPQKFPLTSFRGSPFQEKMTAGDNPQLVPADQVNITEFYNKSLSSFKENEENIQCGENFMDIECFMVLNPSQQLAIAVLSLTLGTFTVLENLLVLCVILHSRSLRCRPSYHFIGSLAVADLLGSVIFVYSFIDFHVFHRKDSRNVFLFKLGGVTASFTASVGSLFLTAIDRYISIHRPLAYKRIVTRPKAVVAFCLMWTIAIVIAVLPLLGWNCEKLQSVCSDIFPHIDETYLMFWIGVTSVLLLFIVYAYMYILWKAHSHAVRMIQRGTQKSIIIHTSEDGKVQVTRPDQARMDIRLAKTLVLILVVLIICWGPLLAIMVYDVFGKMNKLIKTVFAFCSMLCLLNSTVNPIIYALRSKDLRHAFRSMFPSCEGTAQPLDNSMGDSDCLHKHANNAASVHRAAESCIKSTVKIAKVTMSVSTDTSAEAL

[2] = molecular target: T2, C-X-C chemokine receptor type 1 (Homo sapiens, UniProt P25024); note: in other assays of this panel Not Active means under 50% inhibition at 10 µM
T2 sequence (P25024 whole entry): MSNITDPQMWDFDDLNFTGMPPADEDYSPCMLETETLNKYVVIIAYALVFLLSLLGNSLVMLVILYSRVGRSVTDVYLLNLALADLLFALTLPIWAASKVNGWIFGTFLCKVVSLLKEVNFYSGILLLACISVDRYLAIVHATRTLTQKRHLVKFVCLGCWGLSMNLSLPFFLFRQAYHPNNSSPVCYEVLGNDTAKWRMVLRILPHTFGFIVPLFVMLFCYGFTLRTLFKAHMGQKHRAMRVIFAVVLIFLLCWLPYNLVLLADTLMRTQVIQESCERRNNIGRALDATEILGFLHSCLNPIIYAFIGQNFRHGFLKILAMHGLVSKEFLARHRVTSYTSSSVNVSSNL

[3] = DRUGMATRIX: Glutamate, Kainate radioligand binding (ligand: [3H] Kainic acid); type: cell membranes, Rattus norvegicus, Wistar, Brain, Membrane; details: Not Active = under 50% inhibition at 10 µM
[4] = DRUGMATRIX: Phosphodiesterase PDE3 enzyme inhibition (substrate: [3H]cAMP + cAMP); type: tissue-based, Homo sapiens; details: platelet; Not Active = under 50% inhibition at 10 µM
Interstitial collagenase = molecular target: T3, Interstitial collagenase (Homo sapiens, UniProt P03956); type: tissue-based, Rheumatoid synovial fibroblasts;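 note: MMP-1 enzyme inhibition assay using a peptide substrate; in other assays of this panel Not Active means under 50% inhibition at 10 µM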
T3 sequence (P03956 whole entry): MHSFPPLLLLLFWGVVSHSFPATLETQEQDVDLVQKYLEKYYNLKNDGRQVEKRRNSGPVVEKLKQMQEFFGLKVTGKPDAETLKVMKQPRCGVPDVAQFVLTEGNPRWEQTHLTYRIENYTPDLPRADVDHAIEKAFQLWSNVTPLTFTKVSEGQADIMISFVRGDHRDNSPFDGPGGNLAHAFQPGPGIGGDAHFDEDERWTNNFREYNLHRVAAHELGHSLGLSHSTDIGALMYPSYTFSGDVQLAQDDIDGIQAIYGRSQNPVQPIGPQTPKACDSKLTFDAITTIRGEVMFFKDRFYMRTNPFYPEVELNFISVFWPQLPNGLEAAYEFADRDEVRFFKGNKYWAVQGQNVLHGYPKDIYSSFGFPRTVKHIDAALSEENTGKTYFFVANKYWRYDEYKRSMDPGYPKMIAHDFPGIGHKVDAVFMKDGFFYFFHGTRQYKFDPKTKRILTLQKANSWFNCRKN

Estrogen receptor = molecular target: T4, Estrogen receptor (Homo sapiens, UniProt P03372); details: sf9; note: in other assays of this panel Not Active means under 50% inhibition at 10 µM
T4 sequence (P03372 whole entry): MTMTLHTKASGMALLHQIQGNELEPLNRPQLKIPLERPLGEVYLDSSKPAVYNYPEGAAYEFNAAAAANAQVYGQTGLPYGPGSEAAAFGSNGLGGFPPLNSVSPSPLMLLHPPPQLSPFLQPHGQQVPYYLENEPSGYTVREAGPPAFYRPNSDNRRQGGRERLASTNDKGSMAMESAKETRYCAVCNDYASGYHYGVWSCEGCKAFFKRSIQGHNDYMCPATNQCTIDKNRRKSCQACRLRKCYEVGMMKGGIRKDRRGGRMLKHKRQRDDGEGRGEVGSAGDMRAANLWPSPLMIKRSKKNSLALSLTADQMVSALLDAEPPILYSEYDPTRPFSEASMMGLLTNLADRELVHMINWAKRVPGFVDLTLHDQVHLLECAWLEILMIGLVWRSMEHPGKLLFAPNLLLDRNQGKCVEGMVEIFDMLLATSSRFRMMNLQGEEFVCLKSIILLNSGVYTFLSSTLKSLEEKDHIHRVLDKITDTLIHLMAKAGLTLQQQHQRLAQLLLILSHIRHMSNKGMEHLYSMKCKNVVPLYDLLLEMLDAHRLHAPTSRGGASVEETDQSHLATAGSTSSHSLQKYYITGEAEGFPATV

NC[C@@H]1O[C@H](O[C@H]2[C@@H](O)[C@H](O[C@@H]3[C@@H](O)[C@H](N)C[C@H](N)[C@H]3O[C@H]3O[C@H](CN)[C@@H](O)[C@H](O)[C@H]3N)O[C@@H]2CO)[C@H](N)[C@@H](O)[C@@H]1O [FRAMYCETIN]
Not Active: IC50 [1] | Ki [1] | IC50 (Calcitonin receptor) | IC50 (Cannabinoid receptor 1) | IC50 [2] | IC50 [3] | Ki [3] | IC50 [4] | Ki [4] | IC50 (Interstitial collagenase) | IC50 (Estrogen receptor)

C[C@H]([C@](O)(Cn1cncn1)c1ccc(F)cc1F)S(C)(=O)=O [GENACONAZOLE]
Not Active: IC50 [1] | Ki [1] | IC50 (Calcitonin receptor) | IC50 (Cannabinoid receptor 1) | IC50 [2] | IC50 [3] | Ki [3] | IC50 [4] | Ki [4] | IC50 (Interstitial collagenase) | IC50 (Estrogen receptor)

Cc1cnc(C(=O)NCCc2ccc(S(=O)(=O)NC(=O)NC3CCCCC3)cc2)cn1 [GLIPIZIDE]
Not Active: IC50 [1] | Ki [1] | IC50 (Calcitonin receptor) | IC50 (Cannabinoid receptor 1) | IC50 [2] | IC50 [3] | Ki [3] | IC50 [4] | Ki [4] | IC50 (Interstitial collagenase) | IC50 (Estrogen receptor)

Cc1c(F)c(N2CCNC(C)C2)cc2c1c(=O)c(C(=O)O)cn2C1CC1 (stereo not drawn) [GREPAFLOXACIN]
Not Active: IC50 [1] | Ki [1] | IC50 (Calcitonin receptor) | IC50 (Cannabinoid receptor 1) | IC50 [2] | IC50 [3] | Ki [3] | IC50 [4] | Ki [4] | IC50 (Interstitial collagenase) | IC50 (Estrogen receptor)

N=C(N)N/N=C/c1c(Cl)cccc1Cl [GUANABENZ]
Not Active: IC50 [1] | Ki [1] | IC50 (Calcitonin receptor) | IC50 (Cannabinoid receptor 1) | IC50 [2] | IC50 [3] | Ki [3] | IC50 [4] | Ki [4] | IC50 (Interstitial collagenase) | IC50 (Estrogen receptor)

C/C=C\c1ccc(O)c(OC)c1 [ISOEUGENOL]
Not Active: IC50 [1] | Ki [1] | IC50 (Calcitonin receptor) | IC50 (Cannabinoid receptor 1) | IC50 [2] | IC50 [3] | Ki [3] | IC50 [4] | Ki [4] | IC50 (Interstitial collagenase) | IC50 (Estrogen receptor)

NC[C@H]1O[C@H](O[C@H]2[C@H](O)[C@@H](O[C@H]3O[C@H](CO)[C@@H](O)[C@H](N)[C@H]3O)[C@H](N)C[C@@H]2N)[C@H](O)[C@@H](O)[C@@H]1O [KANAMYCIN]
Not Active: IC50 [1] | Ki [1] | IC50 (Calcitonin receptor) | IC50 (Cannabinoid receptor 1) | IC50 [2] | IC50 [3] | Ki [3] | IC50 [4] | Ki [4] | IC50 (Interstitial collagenase) | IC50 (Estrogen receptor)

CC[C@H](C)C(=O)O[C@H]1C[C@@H](C)C=C2C=C[C@H](C)[C@H](CC[C@@H]3C[C@@H](O)CC(=O)O3)[C@H]21 [LOVASTATIN]
Not Active: IC50 [1] | Ki [1] | IC50 (Calcitonin receptor) | IC50 (Cannabinoid receptor 1) | IC50 [2] | IC50 [3] | Ki [3] | IC50 [4] | Ki [4] | IC50 (Interstitial collagenase) | IC50 (Estrogen receptor)

CC(C(=O)O)c1ccc(CC2CCCC2=O)cc1 (stereo not drawn) [LOXOPROFEN]
Not Active: IC50 [1] | Ki [1] | IC50 (Calcitonin receptor) | IC50 (Cannabinoid receptor 1) | IC50 [2] | IC50 [3] | Ki [3] | IC50 [4] | Ki [4] | IC50 (Interstitial collagenase) | IC50 (Estrogen receptor)

CC(=O)O[C@]1(C(C)=O)CC[C@H]2[C@@H]3C=C(C)C4=CC(=O)CC[C@]4(C)[C@H]3CC[C@@]21C [MEGESTROL ACETATE]
Not Active: IC50 [1] | Ki [1] | IC50 (Calcitonin receptor) | IC50 (Cannabinoid receptor 1) | IC50 [2] | IC50 [3] | Ki [3] | IC50 [4] | Ki [4] | IC50 (Interstitial collagenase) | IC50 (Estrogen receptor)

COc1ccccc1OCC(O)COC(N)=O (stereo not drawn) [METHOCARBAMOL]
Not Active: IC50 [1] | Ki [1] | IC50 (Calcitonin receptor) | IC50 (Cannabinoid receptor 1) | IC50 [2] | IC50 [3] | Ki [3] | IC50 [4] | Ki [4] | IC50 (Interstitial collagenase) | IC50 (Estrogen receptor)

CN(Cc1cnc2nc(N)nc(N)c2n1)c1ccc(C(=O)N[C@@H](CCC(=O)O)C(=O)O)cc1 [METHOTREXATE]
Not Active: IC50 [1] | Ki [1] | IC50 (Calcitonin receptor) | IC50 (Cannabinoid receptor 1) | IC50 [2] | IC50 [3] | Ki [3] | IC50 [4] | Ki [4] | IC50 (Interstitial collagenase) | IC50 (Estrogen receptor)

COC(=O)c1ccccc1O [METHYL SALICYLATE]
Not Active: IC50 [1] | Ki [1] | IC50 (Calcitonin receptor) | IC50 (Cannabinoid receptor 1) | IC50 [2] | IC50 [3] | Ki [3] | IC50 [4] | Ki [4] | IC50 (Interstitial collagenase) | IC50 (Estrogen receptor)

C[C@]12C/C(=C/O)C(=O)C[C@@H]1CC[C@@H]1[C@@H]2CC[C@@]2(C)[C@H]1CC[C@]2(C)O [OXYMETHOLONE]
Not Active: IC50 [1] | Ki [1] | IC50 (Calcitonin receptor) | IC50 (Cannabinoid receptor 1) | IC50 [2] | IC50 [3] | Ki [3] | IC50 [4] | Ki [4] | IC50 (Interstitial collagenase) | IC50 (Estrogen receptor)

CC(C)(CO)C(O)C(=O)NCCCO (stereo not drawn) [PANTHENOL]
Not Active: IC50 [1] | Ki [1] | IC50 (Calcitonin receptor) | IC50 (Cannabinoid receptor 1) | IC50 [2] | IC50 [3] | Ki [3] | IC50 [4] | Ki [4] | IC50 (Interstitial collagenase) | IC50 (Estrogen receptor)

OCCN1CCN(CCCN2c3ccccc3Sc3ccc(Cl)cc32)CC1 [PERPHENAZINE]
Not Active: IC50 [1] | Ki [1] | IC50 (Calcitonin receptor) | IC50 (Cannabinoid receptor 1) | IC50 [2] | IC50 [3] | Ki [3] | IC50 [4] | Ki [4] | IC50 (Interstitial collagenase) | IC50 (Estrogen receptor)

CCCCC1C(=O)N(c2ccccc2)N(c2ccccc2)C1=O [PHENYLBUTAZONE]
Not Active: IC50 [1] | Ki [1] | IC50 (Calcitonin receptor) | IC50 (Cannabinoid receptor 1) | IC50 [2] | IC50 [3] | Ki [3] | IC50 [4] | Ki [4] | IC50 (Interstitial collagenase) | IC50 (Estrogen receptor)

Cc1cccc(Nc2cc(Cl)nc(SCC(=O)O)n2)c1C [PIRINIXIC ACID]
Not Active: IC50 [1] | Ki [1] | IC50 (Calcitonin receptor) | IC50 (Cannabinoid receptor 1) | IC50 [2] | IC50 [3] | Ki [3] | IC50 [4] | Ki [4] | IC50 (Interstitial collagenase) | IC50 (Estrogen receptor)
